Laboratory results from publication PMC3986099, “Development of a Radioiodinated Triazolopyrimidine Probe for Nuclear Medical Imaging of Fatty Acid Binding Protein 4” (PLoS ONE, 2014).

How the values were obtained:
Assay in all cases: Selectivity binding assay with FABP immobilized on Ni-NTA magnetic agarose beads
his-tagged FABP3 = biological target: T1, his-tagged FABP3 (Homo sapiens, UniProt P05413); details: immobilized FABP3, 2 hr, room temperature
T1 construct: purchased Cayman Chemical Company
Procedure: (§1) For the selectivity binding assay, his-tagged FABP3 (0.75 mg/ml), FABP4 (0.75 mg/ml) and FABP5 (0.70 mg/ml) in 50 mM phosphate buffer containing 100 mM NaCl (20% glycerol, v/v, pH = 7.2) were used. Immobilization was performed following the manufacturer's procedures. Each solution of his-tagged FABP3 ([…], 1.5 µg), FABP4 (0.002 ml, 1.5 µg) or FABP5 (0.002 ml, 1.4 µg) was incubated with 0.02 ml Ni-NTA Magnetic Agarose Beads (Qiagen) and 0.5 ml protein binding buffer (50 mM NaH2PO4, 300 mM NaCl, 10 mM imidazole, pH = 8.0) at room temperature for 1 hr. After supernatant removal, protein binding buffer with 1% BSA was added, and the mixture was incubated at room temperature for 30 min. After removal of the supernatant, 0.4 ml of interaction buffer (50 mM NaH2PO4, 300 mM NaCl, 10 mM imidazole, and 0.005% Tween, v/v, pH = 8.0) and 0.05 ml [^125I]TAP1 (0.01 MBq) in interaction buffer (5% ethanol, v/v) were added. For measurement of non-specific binding, 0.05 ml of nonradioactive TAP1 in interaction buffer (5% ethanol, v/v, 11.3 µM) was added with the [^125I]TAP1. After incubation at room temperature for 2 hr, the supernatants were removed, and the beads washed with interaction buffer (5% ethanol, v/v). The radioactivity of beads in the tubes was measured with a well-type γ-counter (1480 Wizard3, PerkinElmer Japan Co., Osaka, Japan). Binding ratios were calculated as (radioactivity of beads)/(total applied radioactivity)/(protein abundance on beads)×100 (%Dose/µg protein).

his-tagged FABP4 = biological target: T2, his-tagged FABP4 (Homo sapiens, UniProt P15090)
T2 construct: purchased Cayman Chemical Company
Procedure: as §1

his-tagged FABP5 = biological target: T3, his-tagged FABP5 (Homo sapiens, UniProt Q01469); details: immobilized FABP5, 2 hr, room temperature
T3 construct: purchased Cayman Chemical Company
Procedure: as §1

T2 sequence (P15090 whole entry): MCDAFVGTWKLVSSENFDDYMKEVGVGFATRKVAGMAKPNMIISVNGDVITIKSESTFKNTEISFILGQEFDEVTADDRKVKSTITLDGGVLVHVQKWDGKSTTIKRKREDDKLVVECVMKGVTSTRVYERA
T1 sequence (P05413 whole entry): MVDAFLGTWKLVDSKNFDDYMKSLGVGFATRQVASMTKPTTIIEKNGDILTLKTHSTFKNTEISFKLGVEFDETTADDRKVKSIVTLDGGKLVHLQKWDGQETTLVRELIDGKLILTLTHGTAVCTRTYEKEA
T3 sequence (Q01469 whole entry): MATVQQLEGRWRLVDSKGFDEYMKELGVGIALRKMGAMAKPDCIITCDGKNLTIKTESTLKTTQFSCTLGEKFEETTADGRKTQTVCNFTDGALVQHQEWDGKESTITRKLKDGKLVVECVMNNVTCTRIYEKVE

## O=c1cc(COc2cccc([125I])c2)[nH]c2nc(-c3ccccc3)nn12 [[^125I]TAP1]
his-tagged FABP3
  binding to FABP3: 1.4±0.5 % dose/µg protein
his-tagged FABP4; FABP4 over FABP3
  FABP4 binding relative to FABP3: 11.5 fold
his-tagged FABP4; FABP4 over FABP5
  FABP4 binding relative to FABP5: 33.2 fold
his-tagged FABP4; immobilized FABP4, 2 hr, room temperature
  binding to FABP4: 16.3±3.4 % dose/µg protein
his-tagged FABP5
  binding to FABP5: 0.5±0.3 % dose/µg protein
